Experimental data from patent publication EP0550775A1, “Cephalosporin derivatives” (F. HOFFMANN-LA ROCHE AG, priority 1992, dated 1993).
Structures can show the parent of a compound that is named as a salt. Where two headings read alike, the source gives them in different places.

Columns and labels:
Format in all cases: cell-based
E. coli TEM-1 = assay: microbe, parasite or virus in culture; conditions: agar dilution
Experimental: (§1) In vitro activity of the compounds of the present invention was measured by the Minimum Inhibitory Concentration (MIC) in micrograms/ml utilizing the Agar Dilution Method, which is well known in the art, against a variety of gram-negative and gram-positive organisms.

E. coli ATCC 25922 = assay: microbe, parasite or virus in culture
Experimental: as §1

E. coli 257 = assay: microbe, parasite or virus in culture; conditions: agar dilution
Experimental: as §1

Enter. cloacae P99 = assay: microbe, parasite or virus in culture; conditions: agar dilution
Experimental: as §1

Staph. aureus ATCC 29213 = assay: In vitro MIC, Agar Dilution Method
Experimental: as §1

Staph. aureus 67 = assay: In vitro MIC, Agar Dilution Method; conditions: Staph. aureus 67, agar dilution
Experimental: as §1

Cit. freundi BS-16 = assay: In vitro MIC, Agar Dilution Method
Experimental: as §1

Prot. mirabilis 90 = assay: In vitro MIC, Agar Dilution Method; conditions: Prot. mirabilis 90, agar dilution
Experimental: as §1

Prot. vulgaris 1028 BC = assay: In vitro MIC, Agar Dilution Method
Experimental: as §1

Ser. marcescens 1071 = assay: In vitro MIC, Agar Dilution Method; conditions: Ser. marcescens 1071, agar dilution
Experimental: as §1

Ps. aeruginosa 5712 = assay: In vitro MIC, Agar Dilution Method
Experimental: as §1

Ser. marcescens SM = assay: In vitro MIC, Agar Dilution Method
Experimental: as §1

Enter. cloacae 5699 = assay: In vitro MIC, Agar Dilution Method; conditions: Enter. cloacae 5699, agar dilution
Experimental: as §1

Prot. vulgaris ATCC 6380 = assay: In vitro MIC, Agar Dilution Method
Experimental: as §1

[1] = system: Ps. aeruginosa ATCC 27853; assay: In vitro MIC, Agar Dilution Method
Experimental: as §1

Str. pyogenes 4 = assay: In vitro MIC, Agar Dilution Method; conditions: Str. pyogenes 4, agar dilution
Experimental: as §1

Ps. aeruginosa 765 = assay: In vitro MIC, Agar Dilution Method
Experimental: as §1

Ps. aeruginosa 8780 = assay: In vitro MIC, Agar Dilution Method
Experimental: as §1

Staph. aureus 753 = assay: In vitro MIC, Agar Dilution Method
Experimental: as §1

Str. pneumoniae 6301 = assay: In vitro MIC, Agar Dilution Method; conditions: Str. pneumoniae 6301, agar dilution
Experimental: as §1

Ps. aeruginosa 18SH = assay: In vitro MIC, Agar Dilution Method
Experimental: as §1

Str. faecalis ATCC 29212 = assay: In vitro MIC, Agar Dilution Method; conditions: Str. faecalis ATCC 29212, agar dilution
Experimental: as §1

Staph. aureus Smith = assay: In vitro MIC, Agar Dilution Method
Experimental: as §1

K. pneumoniae A = assay: In vitro MIC, Agar Dilution Method; conditions: K. pneumoniae A, agar dilution
Experimental: as §1

Staph. aureus 1059B = assay: In vitro MIC, Agar Dilution Method
Experimental: as §1

[2] = Escherichia coli, read-out: MIC
[3] = Enterobacter cloacae, read-out: MIC
[4] = Staphylococcus aureus, read-out: MIC
[5] = Serratia marcescens, read-out: MIC
[6] = Pseudomonas aeruginosa, read-out: MIC

CC(C)(O/N=C(\C(=O)N[C@@H]1C(=O)N2C(C(=O)[O-])=C(CN3CCN(c4cc5c(cc4F)c(=O)c(C(=O)O)cn5C4CC4)CC3)CS[C@H]12)c1csc(N)n1)C(=O)O.[Na+] [Compound A, [6R-[6α,7β(Z)]]-7-[[(2-Amino-4-thiazolyl)[(1-carboxy-1-methylethoxy)imino]acetyl]amino]-3-[[4-(3-carboxy-1-cyclopropyl-6-fluoro-1,4-dihydro-4-oxo-7-quinolinyl)-1-piperazinyl]methyl]-8-oxo-5-thia-1-azabicyclo[4.2.0]oct-2-ene-2-carboxylic acid sodium salt]
MIC (E. coli TEM-1): 500 µg/mL | MIC (E. coli ATCC 25922; agar dilution): 250 µg/mL | MIC (E. coli 257): 250 µg/mL | MIC (Enter. cloacae P99): 500 µg/mL | MIC (Staph. aureus ATCC 29213): 8000 µg/mL | MIC (Staph. aureus 67): 16000 µg/mL | MIC (Cit. freundi BS-16): 125 µg/mL | MIC (Prot. mirabilis 90): 2000 µg/mL | MIC (Prot. vulgaris 1028 BC): 1000 µg/mL | MIC (Ser. marcescens 1071): 1000 µg/mL | MIC (Ps. aeruginosa 5712): 16000 µg/mL | MIC (Ser. marcescens SM): 1000 µg/mL | MIC (Enter. cloacae 5699): 1000 µg/mL | MIC (Prot. vulgaris ATCC 6380): 500 µg/mL | MIC [1]: 8000 µg/mL | MIC (Str. pyogenes 4): 250 µg/mL | MIC (Ps. aeruginosa 765): 8000 µg/mL | MIC (Ps. aeruginosa 8780): 8000 µg/mL | MIC (Staph. aureus 753): 8000 µg/mL | MIC (Str. pneumoniae 6301): 250 µg/mL | MIC (Ps. aeruginosa 18SH): 2000 µg/mL | MIC (Str. faecalis ATCC 29212): 8000 µg/mL | MIC (Staph. aureus Smith): 8000 µg/mL | MIC (K. pneumoniae A): 500 µg/mL | MIC (Staph. aureus 1059B): 4000 µg/mL

CC(C)(O/N=C(\C(=O)N[C@@H]1C(=O)N2C(C(=O)[O-])=C(CN3CCN(c4cc5c(cc4F)c(=O)c(C(=O)[O-])cn5C4CC4)CC3)CS[C@H]12)c1csc(N)n1)C(=O)NNC(=O)c1ccc(O)c(O)c1.[Na+].[Na+] [Compound G, [6R-[6α,7β(Z)]]-7-[[[(2-Amino-4-thiazolyl)[1-[[(3,4-dihydroxybenzoyl)hydrazino]carbonyl]-1-methylethoxy]imino]acetyl]amino]-3-[[4-(3-carboxy-1-cyclopropyl-6-fluoro-1,4-dihydro-4-oxo-7-quinolinyl)-1-piperazinyl]methyl]-8-oxo-5-thia-1-azabicyclo[4.2.0]oct-2-ene-2-carboxylic acid sodium salt]
MIC (E. coli TEM-1): 62.5 µg/mL | MIC (E. coli ATCC 25922; agar dilution): 125 µg/mL | MIC (E. coli 257): 125 µg/mL | MIC (Enter. cloacae P99): 250 µg/mL | MIC (Staph. aureus ATCC 29213): 4000 µg/mL | MIC (Staph. aureus 67): 8000 µg/mL | MIC (Cit. freundi BS-16): 250 µg/mL | MIC (Prot. mirabilis 90): 500 µg/mL | MIC (Prot. vulgaris 1028 BC): 250 µg/mL | MIC (Ser. marcescens 1071): 500 µg/mL | MIC (Ps. aeruginosa 5712): 250 µg/mL | MIC (Ser. marcescens SM): 500 µg/mL | MIC (Enter. cloacae 5699): 250 µg/mL | MIC (Prot. vulgaris ATCC 6380): 125 µg/mL | MIC [1]: 500 µg/mL | MIC (Str. pyogenes 4): 250 µg/mL | MIC (Ps. aeruginosa 765): 500 µg/mL | MIC (Ps. aeruginosa 8780): 250 µg/mL | MIC (Staph. aureus 753): 4000 µg/mL | MIC (Str. pneumoniae 6301): 125 µg/mL | MIC (Ps. aeruginosa 18SH): 500 µg/mL | MIC (Str. faecalis ATCC 29212): 4000 µg/mL | MIC (Staph. aureus Smith): 2000 µg/mL | MIC (K. pneumoniae A): 500 µg/mL | MIC (Staph. aureus 1059B): 4000 µg/mL

N[C@@H](C(=O)N[C@@H]1C(=O)N2C(C(=O)O)=C(CN3CCN(c4cc5c(cc4F)c(=O)c(C(=O)O)cn5C4CC4)CC3)CS[C@H]12)c1ccccc1 [Compound D, [6R-[6α,7β(R)]]-7-[(Aminophenylacetyl)amino]-3-[[4-(3-carboxy-1-cyclopropyl-6-fluoro-1,4-dihydro-4-oxo-7-quinolinyl)-1-piperazinyl]methyl]-8-oxo-5-thia-1-azabicyclo[4.2.0]oct-2-ene-2-carboxylic acid trifluoroacetic acid salt]
MIC (E. coli TEM-1; [2]): 31.3 µg/mL | MIC (E. coli ATCC 25922; Escherichia coli, ATCC25922, agar dilution, read-out: MIC): 31.3 µg/mL | MIC (E. coli 257; [2]): 31.3 µg/mL | MIC (Enter. cloacae P99; [3]): 31.3 µg/mL | MIC (Staph. aureus ATCC 29213; Staphylococcus aureus, ATCC29213, read-out: MIC): 1000 µg/mL | MIC (Staph. aureus 67; [4]): 2000 µg/mL | MIC (Cit. freundi BS-16; read-out: MIC): 62.5 µg/mL | MIC (Prot. mirabilis 90; Proteus mirabilis, read-out: MIC): 250 µg/mL | MIC (Prot. vulgaris 1028 BC; Proteus vulgaris, read-out: MIC): 62.5 µg/mL | MIC (Ser. marcescens 1071; [5]): 125 µg/mL | MIC (Ps. aeruginosa 5712; [6]): 4000 µg/mL | MIC (Ser. marcescens SM; [5]): 125 µg/mL | MIC (Enter. cloacae 5699; [3]): 125 µg/mL | MIC (Prot. vulgaris ATCC 6380; Proteus vulgaris, ATCC6380, read-out: MIC): 62.5 µg/mL | MIC ([1]; Pseudomonas aeruginosa, ATCC27853, read-out: MIC): 1000 µg/mL | MIC (Str. pyogenes 4; Streptococcus pyogenes, read-out: MIC): 1000 µg/mL | MIC (Ps. aeruginosa 765; [6]): 2000 µg/mL | MIC (Ps. aeruginosa 8780; [6]): 1000 µg/mL | MIC (Staph. aureus 753; [4]): 2000 µg/mL | MIC (Str. pneumoniae 6301; Streptococcus pneumoniae, read-out: MIC): 2000 µg/mL | MIC (Ps. aeruginosa 18SH; [6]): 1000 µg/mL | MIC (Str. faecalis ATCC 29212; Enterococcus faecalis, ATCC29212, read-out: MIC): 4000 µg/mL | MIC (Staph. aureus Smith; [4]): 500 µg/mL | MIC (K. pneumoniae A; Klebsiella pneumoniae, read-out: MIC): 31.3 µg/mL | MIC (Staph. aureus 1059B; [4]): 1000 µg/mL

Nc1nc(/C(=N/OCC(=O)O)C(=O)N[C@@H]2C(=O)N3C(C(=O)[O-])=C(CN4CCN(c5cc6c(cc5F)c(=O)c(C(=O)O)cn6C5CC5)CC4)CS[C@H]23)cs1.[Na+] [Compound B, [6R-[6α,7β(Z)]]-7-[[(2-Amino-4-thiazolyl)[(carboxy-methoxy)imino]acetyl]amino]-3-[[4-(3-carboxy-1-cyclopropyl-6-fluoro-1,4-dihydro-4-oxo-7-quinolinyl)-1-piperazinyl]methyl]-8-oxo-5-thia-1-azabicyclo[4.2.0]oct-2-ene-2-carboxylic acid sodium salt]
MIC (E. coli TEM-1): 500 µg/mL | MIC (E. coli ATCC 25922; agar dilution): 500 µg/mL | MIC (E. coli 257): 250 µg/mL | MIC (Enter. cloacae P99): 250 µg/mL | MIC (Staph. aureus ATCC 29213): 8000 µg/mL | MIC (Staph. aureus 67): 32000 µg/mL | MIC (Cit. freundi BS-16): 1000 µg/mL | MIC (Prot. mirabilis 90): 2000 µg/mL | MIC (Prot. vulgaris 1028 BC): 1000 µg/mL | MIC (Ser. marcescens 1071): 2000 µg/mL | MIC (Ps. aeruginosa 5712): 32000 µg/mL | MIC (Ser. marcescens SM): 1000 µg/mL | MIC (Enter. cloacae 5699): 1000 µg/mL | MIC (Prot. vulgaris ATCC 6380): 250 µg/mL | MIC [1]: 16000 µg/mL | MIC (Str. pyogenes 4): 125 µg/mL | MIC (Ps. aeruginosa 765): 8000 µg/mL | MIC (Ps. aeruginosa 8780): 8000 µg/mL | MIC (Staph. aureus 753): 8000 µg/mL | MIC (Str. pneumoniae 6301): 250 µg/mL | MIC (Ps. aeruginosa 18SH): 4000 µg/mL | MIC (Str. faecalis ATCC 29212): 16000 µg/mL | MIC (Staph. aureus Smith): 8000 µg/mL | MIC (K. pneumoniae A): 1000 µg/mL | MIC (Staph. aureus 1059B): 2000 µg/mL
